Laboratory results from US11104618B2, “Fertilizer composition and methods of making and using same” (SABIC GLOBAL TECHNOLOGIES B.V., priority 2015, dated 2021).

Experiments:
[1] = Thermal stability of NBTPT at urea melt temperature by HPLC; format: physicochemical
Procedure: The thermal stability of neat NBTPT and NBTPT contained within a core, as disclosed herein, can be determined by HPLC. For example, neat NBTPT or a core containing NBTPT can be exposed to 135° C. (133-135° C. is the typical temperature range of a urea melt) and can continuously be analyzed by HPLC every 5 min, until 30 min on analysis was reached. Such data will determine whether the NBTPT has better thermal stability when contained within a core, as compared to neat NBTPT.
Stability of inhibitors in urea melt: Extrudates containing inhibitors were tested for their stability in urea melt using HPLC and LCMS.

Upland Crowley Soil = test: Nitrogen loss after 17 days of exposure to soil (IFDC)
Procedure: The nitrogen volatilization was measured in different soils for several samples and compared to products on the market, such as Agrotain®, ESN®, and SuperU®. The samples were tested in Greenville soil, Crowley soil, and Brownfield Soil. Crowley soil consists of very deep, somewhat poorly drained, very slowly permeable soils that formed in clayey fluviomarine deposits of the Pleistocene age. The soil exist in nearly level to very gently sloping soils and occur on flat coastal plains terraces. The slope is dominantly less than 1 percent but ranges to up to 3 percent. The mean annual precipitation is about 1549 mm (61 in), and the mean annual air temperature is about 20 degrees C. (68 degrees F.), where the soil is found. The soil is fine, […], and […].

Structure (SMILES)	thermal stability of neat NBTPT ([1]; neat, exposed to 133-135° C. over time, FIG. 13)	thermal stability of NBTPT within a fertilizer core particle ([1]; within a core exposed to 133-135° C. over time, FIG. 14)	Cumulative Nitrogen Loss (mg) by 17 Days (Upland Crowley Soil; 17 days of exposure to Upland Crowley Soil) [mg]	% Urea (Upland Crowley Soil; nitrogen loss relative to urea, 17 days, Upland Crowley Soil) [%]	% Reduction in Nitrogen Loss (Upland Crowley Soil; versus urea, 17 days, Upland Crowley Soil) [%]
CCCCNP(N)(N)=S [NBTPT, N-(n-butyl) thiophosphoric triamide]	decomposes at this temperature over time	stable over time and does not decompose	–	–	–
NC(N)=O [Urea, urea]	–	–	299.08	100	0
